Test results reported in US10072003B2, “Tetrahydronaphthyridine derivatives as mGluR2-negative allosteric modulators, compositions, and their use” (Merck Sharp & Dohme Corp., priority 2014, dated 2018).

Molecular target: recombinant human mGluR2 (Homo sapiens (Human), UniProt Q14416)
Experiment: FLIPR Ca2+ mobilization antagonist assay in CHO dhfr- cells expressing human mGluR2 and Gα16
Format: cell-based
Conditions: antagonist response after addition of 2,500 nM glutamate, Fluo-4 AM, FLIPR384
How it was run: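 CHO dhfr- cells stably co-expressing human mGluR2 and Gα16, Fluo-4 AM loaded, preincubated with compound, then challenged with 2,500 nM glutamate; Ca2+ response read by FLIPR. Maximum calcium response vs concentration fitted to four-parameter logistic for IC50.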

Chain of recombinant human mGluR2 (Q14416 19-872): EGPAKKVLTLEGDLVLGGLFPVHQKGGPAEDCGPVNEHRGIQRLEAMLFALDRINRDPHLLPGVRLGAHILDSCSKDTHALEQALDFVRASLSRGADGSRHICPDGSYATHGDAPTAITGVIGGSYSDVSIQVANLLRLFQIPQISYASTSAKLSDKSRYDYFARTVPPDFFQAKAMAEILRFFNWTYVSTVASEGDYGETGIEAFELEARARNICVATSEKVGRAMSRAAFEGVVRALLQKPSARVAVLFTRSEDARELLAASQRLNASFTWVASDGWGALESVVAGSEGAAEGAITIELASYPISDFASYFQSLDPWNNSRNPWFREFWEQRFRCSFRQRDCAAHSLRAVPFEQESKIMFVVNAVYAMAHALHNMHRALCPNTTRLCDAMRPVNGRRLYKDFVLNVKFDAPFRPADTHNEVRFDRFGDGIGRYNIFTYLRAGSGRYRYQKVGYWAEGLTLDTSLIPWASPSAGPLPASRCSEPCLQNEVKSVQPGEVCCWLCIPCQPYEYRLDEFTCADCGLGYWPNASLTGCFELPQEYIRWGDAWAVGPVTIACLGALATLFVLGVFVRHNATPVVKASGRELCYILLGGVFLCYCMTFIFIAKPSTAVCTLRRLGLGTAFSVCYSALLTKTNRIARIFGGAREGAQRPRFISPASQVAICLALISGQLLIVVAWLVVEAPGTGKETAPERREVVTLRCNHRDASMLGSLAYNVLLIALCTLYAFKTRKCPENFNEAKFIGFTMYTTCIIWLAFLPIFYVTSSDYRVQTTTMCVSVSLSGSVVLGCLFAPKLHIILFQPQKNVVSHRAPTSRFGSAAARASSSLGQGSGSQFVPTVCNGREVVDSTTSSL

Row | SMILES | IC50
1 | NC(=O)c1cc(-c2cc(C3CC3)ns2)c2c(n1)CN(Cc1ccnc(OC(F)F)c1)CC2 [Example 2-27, 4-(3-cyclopropylisothiazol-5-yl)-7-{[2-(difluoromethoxy)pyridin-4-yl]methyl}-5,6,7,8-tetrahydro-1,7-naphthyridine-2-carboxamide] | 23 nM
2 | CC(c1ccnc(C(F)(F)F)c1)N1CCc2c(-c3cnn(C(F)F)c3)cc(C(N)=O)nc2C1 (single isomer, unassigned) [Example 7-3A, (S) or (R)-4-[1-(difluoromethyl)-1H-pyrazol-4-yl]-7-{(1R)-1-[2-(trifluoromethyl)pyridin-4-yl]ethyl}-5,6,7,8-tetrahydro-1,7-naphthyridine-2-carboxamide] | 29.3 nM
3 | NC(=O)c1cc(-c2ccc(F)cc2Cl)c2c(n1)CN(Cc1ccnc(C(F)(F)F)n1)CC2 [Example 11-5, 4-(2-chloro-4-fluorophenyl)-7-{[2-(trifluoromethyl)pyrimidin-4-yl]methyl}-5,6,7,8-tetrahydro-1,7-naphthyridine-2-carboxamide] | 17.6 nM
4 | CC1(CN2CCc3c(-c4ccc(Cl)cc4F)cc(C(N)=O)nc3C2)COC1 [Example 10-1, 4-(4-chloro-2-fluorophenyl)-7-((3-methyloxetan-3-yl)methyl)-5,6,7,8-tetrahydro-1,7-naphthyridine-2-carboxamide] | 31 nM
5 | NC(=O)c1cc(-c2ccc(F)cc2F)c2c(n1)CN(C(CO)c1ccccc1)CC2 (racemic) [Example 8-2A, (S) and (R)-4-(2,4-difluorophenyl)-7-(2-hydroxy-1-phenylethyl)-5,6,7,8-tetrahydro-1,7-naphthyridine-2-carboxamide] | 9.9 nM
6 | COc1ccnc(CN2CCc3c(-c4ccc(Cl)cc4F)cc(C(N)=O)nc3C2)n1 [Example 9-7, 4-(4-chloro-2-fluorophenyl)-7-[(4-methoxypyrimidin-2-yl)methyl]-5,6,7,8-tetrahydro-1,7-naphthyridine-2-carboxamide] | 11.7 nM
7 | NC(=O)c1cc(-c2c(F)cc(Cl)cc2F)c2c(n1)CN(Cc1ccnn1C(F)F)CC2 [Example 2-20, 4-(4-chloro-2,6-difluorophenyl)-7-{[1-(difluoromethyl)-1H-pyrazol-5-yl]methyl}-5,6,7,8-tetrahydro-1,7-naphthyridine-2-carboxamide] | 11 nM
8 | NC(=O)c1cc(-c2ccc(Cl)cn2)c2c(n1)CN(Cc1ccnn1C(F)F)CC2 [Example 2-22, 4-(5-chloropyridin-2-yl)-7-{[1-(difluoromethyl)-1H-pyrazol-5-yl]methyl}-5,6,7,8-tetrahydro-1,7-naphthyridine-2-carboxamide] | 19.4 nM
9 | COc1cc(CN2CCc3c(N4CCC(F)(F)CC4)cc(C(N)=O)nc3C2)ccn1 [Example 5-3, 4-(4,4-difluoropiperidin-1-yl)-7-[(2-methoxypyridin-4-yl)methyl]-5,6,7,8-tetrahydro-1,7-naphthyridine-2-carboxamide] | 41 nM
10 | COc1cc(CN2CCc3c(-c4ccc(F)cc4Cl)cc(C(N)=O)nc3C2)ccn1 [Example 13-4, 4-(2-chloro-4-fluorophenyl)-7-[(2-methoxypyridin-4-yl)methyl]-5,6,7,8-tetrahydro-1,7-naphthyridine-2-carboxamide] | 5.7 nM
11 | NC(=O)c1cc(-c2ccc(Cl)cc2F)c2c(n1)CN(Cc1cccnc1)CC2 [Example 10-3, 4-(4-chloro-2-fluorophenyl)-7-(pyridin-3-ylmethyl)-5,6,7,8-tetrahydro-1,7-naphthyridine-2-carboxamide] | 12 nM
12 | Cn1cc(CN2CCc3c(-c4ccc(Cl)cc4F)cc(C(N)=O)nc3C2)cn1 [Example 10-4, 4-(4-chloro-2-fluorophenyl)-7-[(1-methyl-1H-pyrazol-4-yl)methyl]-5,6,7,8-tetrahydro-1,7-naphthyridine-2-carboxamide] | 14.6 nM
13 | CS(=O)(=O)c1cccc(CN2CCc3c(-c4ccc(F)cc4)cc(C(N)=O)nc3C2)c1 [Example 2-6, 4-(4-fluorophenyl)-7-[3-(methylsulfonyl)benzyl]-5,6,7,8-tetrahydro-1,7-naphthyridine-2-carboxamide] | 23 nM
